Literature values, collected in US20090318556A1, “BIOMARKERS FOR DETECTING RADIATION EXPOSURE: METHODS AND USES THEREOF” (priority 2008, published 2009).

Experiments:
PPARα = molecular target: T1, PPARα (Mus musculus, UniProt P23204); settings: mice
T1 construct: host or cells: mice (whole animal, endogenous receptor)
T1 sequence (P23204 1-468): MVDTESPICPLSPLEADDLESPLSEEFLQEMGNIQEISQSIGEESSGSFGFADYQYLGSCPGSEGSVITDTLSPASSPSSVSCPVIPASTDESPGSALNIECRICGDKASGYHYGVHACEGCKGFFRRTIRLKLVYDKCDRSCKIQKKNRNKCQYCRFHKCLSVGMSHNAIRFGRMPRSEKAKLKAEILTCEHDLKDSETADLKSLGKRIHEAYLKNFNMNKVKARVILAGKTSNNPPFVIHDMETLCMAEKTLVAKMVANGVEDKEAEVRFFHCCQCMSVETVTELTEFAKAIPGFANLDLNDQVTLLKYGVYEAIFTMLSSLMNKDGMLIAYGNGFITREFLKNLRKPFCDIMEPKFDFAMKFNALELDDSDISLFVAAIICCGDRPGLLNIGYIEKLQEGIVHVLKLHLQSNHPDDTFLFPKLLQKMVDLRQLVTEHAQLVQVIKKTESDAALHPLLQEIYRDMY

[1] = in vivo, iv

Row | urinary excretion reduced after activation of PPARα (PPARα) [fold] | radioactivity in urine relative to plasma [1] | SMILES
1 | 20 |  | CCCCCC(=O)NCC(=O)O [N-Hexanoylglycine]
2 |  | approximately 100 times | Cc1cn([C@H]2C[C@H](O)[C@@H](CO)O2)c(=O)[nH]c1=O [[^3H]thymidine]
